PMC3749181, “Rapid Identification of Antifungal Compounds against Exserohilum rostratum Using High Throughput Drug Repurposing Screens” (PLoS ONE, 2013)
Read-outs that look alike come from different tables or passages of the source.

Tests used:
[1] = tested on: E. rostratum hyphal fragments; experiment: hyphal fragment fungicidal ATP content assay (PBS, 1536-well); assay type: cell-based, Exserohilum rostratum; conditions: for Hyphae % Max. Resp. / Emax / Hyphae % M. Res.: 46 µM Amphotericin B = 100%; for IC50: read-out: Hyphae IC50
Protocol: (§1) Conidia and hyphae of E. rostratum were obtained as described by Richard et al., with the following modifications. Briefly, conidia were harvested from Potato Dextrose Agar (PDA) cultured media with 0.05% Tween 80, and the conidial suspension was filtered using a Cell Strainer (100 µm, BD Falcon REF 352340). After centrifugation at 700g for 10 min, the suspension was decanted and conidia were resuspended at 1×10^5 per ml in RPMI and counted in a hemocytometer. Hyphae were harvested from yeast extract peptone dextrose (YPD) culture media with 0.05% Tween 80. Hyphal fragments were sized by vortexing 15 sec twice with 0.4 mm glassbeads, and the hyphae suspension was filtered by cheese cloth twice. […] To normalize concentrations of hyphal fragments for batch to batch consistency, carbohydrate analysis was performed by a phenol-sulfuric acid method as previously described. The final stock concentration of hyphae was adjusted to 1.0 (OD490) per 100 µl.
(§2) The ATPLite assay kit, consisting of luciferase/luciferin and detergent, was used to quantitate cellular ATP levels as a marker for cell viability (Table 1). For assay development, hyphal fragments or conidia in PBS were plated in a seeding density of 3,750, 7,500 and 15,000 cellular particles/well with a final volume of 5 µl/well using the Multidrop-Combi dispenser in white 1536-well plates. Conidia or hyphae fragments were incubated for 24 h at 37°C in a 5% CO2 humidified atmosphere. ATPLite detection reagents were added at 4 µl/well. The assay plates were incubated at room temperature for 15 minutes before reading luminescence intensity on a ViewLux plate reader (Perkin Elmer, Waltham, MA). Conidia suspended in RPMI medium were inoculated at concentrations of 62.5, 125 and 250 conidia/well with a final volume of 5 µl/well in white 1536-well plates. The conidia assay was developed and optimized in the same way as the hyphal assay.
(§3) The LOPAC library (Sigma-Aldrich) has been extensively used for HTS assay validations, [18]. The NIH Chemical Genomics Center Pharmaceutical (NPC) collection was constructed in-house through a combined effort of compound purchasing and custom synthesis and recently expanded to 4096 compounds. […] 2.5 µl/well PBS was dispensed into 1536-well plates using a Multidrop-Combi dispenser. Compound in DMSO solution was transferred in a volume of 23 nl/well using a NX-TR pintool station (WAKO Scientific Solutions, San Diego, CA). This additional PBS step for compound addition was designed to prevent the potential fungal contamination of compound libraries. The hyphal fragments in PBS were then added at 2.5 µl/well for a final seeding density of 15,000 hyphal fragments/well using the Multidrop-Combi dispenser. The final compound concentration was 46 µM in the primary screen. The assay plates were incubated for 24 h at 30°C before the detection of cellular viability with the ATP content assay. Screen of conidia was performed in a similar way except that PBS was replaced with RPMI medium and conidia were plated for a final seeding density of 250 conidia/well.
(§4) The primary screen data and curve fitting were analyzed using software developed internally at the NIH Chemical Genomics Center (NCGC). Total signals for cellular viability (100% cellular viability) were calculated from the wells with DMSO solvent and the complete cell killing (0% cellular viability) was calculated from 46 µM amphotericin B treated wells. […] All values were expressed as the mean +/− SD (n≥3).

SH-SY5Y cells = experiment: SH-SY5Y cytotoxicity counter-screen (ATP content assay); assay type: cell-based, Human; conditions: for SH-SY5Y % Max. Resp.: Table 2, SH-SY5Y, inact. = no significant activity at 46 µM; for SH-SY5Y % M. Res.: Inact. = no significant activity at 46 µM
Protocol: Human neuroblastoma SH-SY5Y cell line (Catalog No. CRL-2266) was purchased from ATCC (Manassas, VA). SH-SY5Y cell line was cultured in 175-cm^2 tissue culture flasks (Costar, Cambridge, MA) with 30 ml of growth medium at 37°C in a 5% CO2 humidified atmosphere. Growth medium was made with Dulbecco's Modified Eagle Medium: Nutrient Mixture F-12 with 10% fetal bovine serum (FBS). Growth medium was replaced every other day and cells were passed at 75% confluence.
as §2
Two small known compound libraries including the LOPAC (1280 compounds) and approved drugs (4096 compounds) were screened in parallel using the above optimized assays for hyphae and conidia in 1536-well plates (Fig. 4). […] A mammalian SH-SY5Y cell line was used in parallel as a counter-screen with the same ATP content assay kit to assess the specificity of these compounds for E. rostratum.

E. rostratum conidia = experiment: conidia growth inhibition ATP content assay (RPMI, 1536-well); assay type: cell-based, Exserohilum rostratum; conditions: for IC50: read-out: Conidia IC50; for Emax / Conidia % M. Res. / Conidia % Max. Resp.: 46 µM Amphotericin B = 100%
Protocol: as §1, §2, §3, §4

[2] = Table 2, inact. = no significant activity in the primary screen
[3] = Table 2, 24 h, inact. = no significant activity in the primary screen
[4] = Exserohilum rostratum, Table 2, inact. = no significant activity at 46 µM, read-out: Conidia % Max. Resp.
[5] = Exserohilum rostratum, Table 2, inact. = no significant activity in the primary screen, read-out: Hyphae % Max. Resp.
[6] = Exserohilum rostratum, Table 2, 24 h, inact. = no significant activity in the primary screen
[7] = Exserohilum rostratum, Table S1, Inact. = no significant activity in the primary screen, read-out: Hyphae % M. Res.
[8] = Table S1, 46 µM Amphotericin B = 100%
[9] = Table S1, Inact. = no significant activity at the highest compound concentration (46 µM)
[10] = Exserohilum rostratum, 24 h, Table 2, 24 h, inact. = no significant activity at the highest compound concentration (46 µM)
[11] = Exserohilum rostratum, Table S1, Inact. = no significant activity at 46 µM, read-out: Conidia % M. Res.
[12] = Table S1, Inact. = no significant activity in the primary screen
[13] = Table S1, Inact. = no significant activity at 46 µM
[14] = Table 2, inact. = no significant activity at 46 µM
[15] = Table 2, 24 h, inact. = no significant activity at the highest compound concentration (46 µM)
[16] = Exserohilum rostratum, Table S1, Inact. = no significant activity in the primary screen

Row | Molecule | Hyphae % Max. Resp. [1, 2] | SH-SY5Y % Max. Resp. (SH-SY5Y cells; 46 µM Amphotericin B = 100%) | SH-SY5Y % Max. Resp. (SH-SY5Y cells) | Emax (E. rostratum conidia; [4]) [%] | Emax [1, 5] [%] | IC50 [1, 6] [µM] | SH-SY5Y % M. Res. (SH-SY5Y cells; [8]) | SH-SY5Y IC50 (SH-SY5Y cells; [9]) | IC50 (E. rostratum conidia; [10]) [µM] | Hyphae % M. Res. [1, 12] | Hyphae IC50 [1, 12] | Conidia % M. Res. (E. rostratum conidia; [13]) | Conidia IC50 (E. rostratum conidia; [9]) | further results
1 | Oc1ccc(Cl)cc1Sc1cc(Cl)ccc1O [Fenticlor] | inact. | inact. | inact. | 107 |  |  |  |  |  |  |  |  |  | Hyphae IC50 [1, 3]: inact.; IC50 (E. rostratum conidia; Exserohilum rostratum, 24 h): 5.72 µM
2 | CC1(C)CCC(=Cc2ccc(Cl)cc2)C1(O)Cn1cncn1 (stereo not drawn) [Triticonazole] |  | inact. | inact. | 100 | 74 | 5.82 | Inact. | Inact. | 6.95 |  |  |  |  | Emax [1, 7]: 74%; Emax (E. rostratum conidia; [11]): 100%
3 | Cc1cccc(N(C)C(=S)Oc2ccc3c(c2)CCC3)c1 [Tolindate] |  |  |  |  |  |  | Inact. | Inact. |  | Inact. | Inact. | Inact. | Inact. | 
4 | CC(C)(C)c1cc(/C=C(\C#N)C(N)=S)cc(C(C)(C)C)c1O [Tyrphostin AG 879] | inact. | inact. | inact. | 92 |  |  |  |  | 6.16 |  |  |  |  | Hyphae IC50 [1, 3]: inact.
5 | Phenylmercuric borate | inact. | 99% | 0.417% |  |  |  |  |  |  |  |  |  |  | Hyphae IC50 [1, 3]: inact.; Conidia % Max. Resp. (E. rostratum conidia; [14]): 103%; IC50 (E. rostratum conidia; [15]): 0.149 µM
6 | c1ccc(-c2ccc(C(c3ccccc3)n3ccnc3)cc2)cc1 (stereo not drawn) [Bifonazole] |  |  |  |  |  |  | 47% |  |  |  |  |  |  | Emax [1, 7]: 74%; IC50 [1, 16]: 11.8 µM; IC50 (SH-SY5Y cells; Homo sapiens, SH-SY5Y, Table S1, Inact. = no significant activity at the highest compound concentration (46 µM)): 46.9 µM; IC50 (E. rostratum conidia; Exserohilum rostratum, Table S1, Inact. = no significant activity at the highest compound concentration (46 µM)): 9.35 µM; Emax (E. rostratum conidia; [11]): 64%
7 | CNc1ccc2oc(C[C@H]3O[C@@]4(CC[C@H]3C)O[C@H]([C@H](C)C(=O)c3ccc[nH]3)[C@H](C)C[C@H]4C)nc2c1C(=O)O [Calcimycin] | inact. | 94% | 3.95% | 51 |  |  |  |  |  |  |  |  |  | Hyphae IC50 [1, 3]: inact.; IC50 (E. rostratum conidia; Exserohilum rostratum, 24 h): 0.735 µM
8 | Cc1cc(O)c2c(c1)O[C@@]1(C)CC[C@H]3C(C)(C)CCC[C@]34CO[C@@H]2[C@H]41 [Siccanin] |  |  |  |  |  |  | Inact. | Inact. |  | Inact. | Inact. | Inact. | Inact. | 
9 | CC1(C)CCC(NC(=O)[C@@H](N)CCC(=O)O)CC1 [Neboglamine] |  |  |  |  |  |  | Inact. | Inact. |  | Inact. | Inact. | Inact. | Inact. | 
10 | Nc1[nH]c(=O)ncc1F [Flucytosine] |  |  |  |  |  |  | Inact. | Inact. |  | Inact. | Inact. | Inact. | Inact. | 
11 | CCCCCCCCCCCCCC[N+](C)(C)C [Tetradonium bromide] | inact. | inact. | inact. | 103 |  |  |  |  | 2.44 |  |  |  |  | Hyphae IC50 [1, 3]: inact.
12 | CO/C=C(/C(=O)OC)c1ccccc1Oc1cc(Oc2ccccc2C#N)ncn1 [Azoxystrobin] | 81% | inact. | inact. |  |  |  |  |  |  |  |  |  |  | IC50 [1, 3]: 0.198 µM; Conidia % Max. Resp. (E. rostratum conidia; [14]): 83%; IC50 (E. rostratum conidia; [15]): 0.304 µM
13 | Cc1cc(N)c2ccccc2[n+]1CCCCCCCCCC[n+]1c(C)cc(N)c2ccccc21 [Dequalinium dichloride] |  | inact. | inact. | 109 | 93 | 0.673 |  |  | 2.54 |  |  |  |  | 
14 | O=C1C2CC=CCC2C(=O)N1SC(Cl)(Cl)Cl (stereo not drawn) [Captan] |  | 100% | 18.6% |  | 82 | 1.17 |  |  |  |  |  |  |  | Conidia % Max. Resp. (E. rostratum conidia; [14]): inact.; Conidia IC50 (E. rostratum conidia; [15]): inact.
15 | [N-]=[N+]=CC(=O)OC[C@H](N)C(=O)O [Azaserine] |  |  |  |  |  |  | Inact. | Inact. |  | Inact. | Inact. | Inact. | Inact. | 
16 | Mepartricin |  |  |  |  |  |  | 38% |  |  | Inact. | Inact. | 80% |  | IC50 (SH-SY5Y cells): 37.2 µM
17 | O=[N+]([O-])c1c(Cl)cccc1-c1c[nH]cc1Cl [Pyrrolnitrin] |  | inact. | inact. | 101 | 80 | 5.59 |  |  | 0.409 |  |  |  |  | 
18 | C[C@@H]1C/C=C/C=C/C=C/C=C/[C@H](O[C@@H]2O[C@H](C)[C@@H](O)[C@H](N)[C@@H]2O)C[C@@H]2O[C@](O)(C[C@@H](O)C[C@H]3O[C@@H]3/C=C/C(=O)O1)C[C@H](O)[C@H]2C(=O)O [Natamycin] |  |  |  |  |  |  | Inact. | Inact. |  |  |  | Inact. | Inact. | Emax [1, 7]: 66%; IC50 [1, 16]: 46.9 µM
19 | C=CCOC(Cn1ccnc1)c1ccc(Cl)cc1Cl (stereo not drawn) [Enilconazole] |  | inact. | inact. | 102 | 73 | 0.312 |  |  | 1.72 |  |  |  |  | 
20 | CCCCCCC(=O)CCCCCC/C=C/C[C@@H](O)[C@H](O)[C@@](N)(CO)C(=O)O [Myriocin] |  | inact. | inact. | 92 | 81 | 2.75 |  |  | 13.6 |  |  |  |  | 
